Measured values from PubChem BioAssay AID330 (DTP/NCI, 2004).
“And” between values parts separate entries of the source, which are not always exact repeats. Equal entries are not always repeated. Toxic doses and inconclusive results are not listed. How the source made its calls: active means survival T/C of 150% or more; inactive means T/C below 125% in these data.

Test system: P388 leukemia ip, CD2F1 mice, survival T/C
Assay: NCI In Vivo Anticancer Drug Screen. Data for tumor model P388 Leukemia (intraperitoneal) in CD2F1 (CDF1) mice
Settings: endpoint: median survival time, higher = longer survival
Procedure, shortened: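 Mice carrying the transplanted tumor received test compound or vehicle. Survival was recorded in each group, and the value is the treated-group measurement divided by that of the vehicle-treated control group.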

[1] = dose: 50.0 mg/kg/injection, schedule: Q01DX005 (ip), vehicle: Klucel (hydroxypropylcellulose) (HPC)
[2] = dose: 100.0 mg/kg/injection, schedule: Q01DX005 (ip), vehicle: Klucel (hydroxypropylcellulose) (HPC)
[3] = dose: 200.0 mg/kg/injection, schedule: Q01DX005 (ip), vehicle: Klucel (hydroxypropylcellulose) (HPC)
[4] = dose: 50.0 mg/kg/injection, schedule: Q01DX009 (ip), vehicle: Klucel (hydroxypropylcellulose) (HPC)
[5] = dose: 100.0 mg/kg/injection, schedule: Q01DX009 (ip), vehicle: Klucel (hydroxypropylcellulose) (HPC)
[6] = dose: 200.0 mg/kg/injection, schedule: Q01DX009 (ip), vehicle: Klucel (hydroxypropylcellulose) (HPC)
[7] = dose: 25.0 mg/kg/injection, schedule: Q01DX005 (ip), vehicle: saline with Tween-80
[8] = dose: 50.0 mg/kg/injection, schedule: Q01DX005 (ip), vehicle: saline with Tween-80
[9] = dose: 100.0 mg/kg/injection, schedule: Q01DX005 (ip), vehicle: saline with Tween-80
[10] = dose: 200.0 mg/kg/injection, schedule: Q01DX005 (ip), vehicle: saline with Tween-80
[11] = dose: 50.0 mg/kg/injection, schedule: Q01DX009 (ip), vehicle: saline
[12] = dose: 100.0 mg/kg/injection, schedule: Q01DX009 (ip), vehicle: saline
[13] = dose: 200.0 mg/kg/injection, schedule: Q01DX009 (ip), vehicle: saline
[14] = dose: 50.0 mg/kg/injection, schedule: Q01DX009 (ip), vehicle: saline with Tween-80
[15] = dose: 100.0 mg/kg/injection, schedule: Q01DX009 (ip), vehicle: saline with Tween-80
[16] = dose: 200.0 mg/kg/injection, schedule: Q01DX009 (ip), vehicle: saline with Tween-80

Measured: T/C

Cc1cc(C)nc(NCCCNc2nc(C)cc(C)n2)n1
inactive: [1] 101 % of control | [2] 98 % of control | [3] 100 % of control

COc1ccc(CCN2C(=O)C(=O)N(C(C)C)C2=O)cc1OC
inactive: [4] 86 % of control | [5] 91 % of control | [6] 95 % of control

O=c1c2ccccc2c2nc3ccccc3nc2c2ccccc12
inactive: [7] 91 % of control | [8] 97 % of control | [9] 96 % of control

CCCC1C2C=CC(C(S(=O)(=O)c3ccccc3)C2)N1C(=O)OCC (stereo not drawn)
inactive: [7] 100 % of control | [8] 103 % of control | [9] 102 % of control | [10] 102 % of control

COC(=O)C1CCCCC1C(=O)OC (stereo not drawn)
inactive: dose: 12.5 mg/kg/injection, schedule: Q01DX009 (ip), vehicle: saline 108 % of control | dose: 25.0 mg/kg/injection, schedule: Q01DX009 (ip), vehicle: saline 104 % of control and 111 % of control | [11] 104 % of control | [12] 100 % of control and 101 % of control (2×) | [13] 110 % of control

Cc1nnc2cc3ccccc3cn12
inactive: [8] 89 % of control | [9] 97 % of control | [10] 100 % of control

c1ccc2c3c([nH]c2c1)CCc1cncnc1-3
inactive: [1] 91 % of control and 97 % of control | [2] 90 % of control and 103 % of control | [3] 99 % of control and 115 % of control

C(=C\CSc1ccccn1)/CSc1ccccn1
inactive: dose: 12.5 mg/kg/injection, schedule: Q01DX009 (ip), vehicle: Klucel (hydroxypropylcellulose) (HPC) 107 % of control | dose: 25.0 mg/kg/injection, schedule: Q01DX009 (ip), vehicle: Klucel (hydroxypropylcellulose) (HPC) 99 % of control | [4] 90 % of control and 91 % of control | [6] 91 % of control

CN1C(=O)N(CCCl)C(=O)C(C)(C2=CCCCC2)C1=O (stereo not drawn)
inactive: [4] 92 % of control | [5] 92 % of control | [6] 90 % of control

Oc1cc(O)c(Br)c(O)c1
inactive: dose: 7.5 mg/kg/injection, schedule: Q01DX005 (ip), vehicle: saline 108 % of control | dose: 15.0 mg/kg/injection, schedule: Q01DX005 (ip), vehicle: saline 111 % of control | dose: 30.0 mg/kg/injection, schedule: Q01DX005 (ip), vehicle: saline 105 % of control

CCOC(=O)c1ccc(NC(=O)Nc2ncc(Cl)cc2Cl)cc1
inactive: [14] 89 % of control | [15] 86 % of control | [16] 94 % of control

Fc1ccc(N2C(c3ccccc3)=N[C@@H](N3CCCCC3)[C@@H]2N2CCCCC2)cc1
inactive: [1] 102 % of control | [2] 99 % of control | [3] 100 % of control

COC1=CC(=O)C=C(CO)C1=O
inactive: dose: 1.56 mg/kg/injection, schedule: Q01DX009 (ip), vehicle: saline 104 % of control | dose: 3.12 mg/kg/injection, schedule: Q01DX009 (ip), vehicle: saline 107 % of control | dose: 6.25 mg/kg/injection, schedule: Q01DX009 (ip), vehicle: saline 111 % of control and 94 % of control

Cc1cc2c(=O)[nH]c(N)nc2[nH]1
inactive: dose: 12.5 mg/kg/injection, schedule: Q01DX009 (ip), vehicle: suspension in saline 99 % of control | dose: 25.0 mg/kg/injection, schedule: Q01DX009 (ip), vehicle: suspension in saline 115 % of control | dose: 50.0 mg/kg/injection, schedule: Q01DX009 (ip), vehicle: suspension in saline 113 % of control and 116 % of control

C=CCOC(OCC=C)C(OCC=C)OCC=C
inactive: [12] 109 % of control | dose: 100.0 mg/kg/injection, schedule: Q04DX003 (ip), vehicle: saline 100 % of control | [13] 100 % of control | dose: 200.0 mg/kg/injection, schedule: Q04DX003 (ip), vehicle: saline 100 % of control | dose: 400.0 mg/kg/injection, schedule: Q01DX009 (ip), vehicle: saline 122 % of control | dose: 400.0 mg/kg/injection, schedule: Q04DX003 (ip), vehicle: saline 100 % of control

CC(=O)C(C)P(=O)(O)O (stereo not drawn)
inactive: [11] 99 % of control | [12] 101 % of control | [13] 106 % of control

CC(C)(Oc1ccc(C(=O)c2ccc(Cl)cc2)cc1)C(=O)O
inactive: [14] 93 % of control | [15] 102 % of control | [16] 111 % of control

[O-]/[N+]1=[N+](\[O-])c2ccccc2CCc2ccccc21
inactive: dose: 60.0 mg/kg/injection, schedule: Q01DX005 (ip), vehicle: saline with Tween-80 100 % of control | dose: 120.0 mg/kg/injection, schedule: Q01DX005 (ip), vehicle: saline with Tween-80 102 % of control | dose: 240.0 mg/kg/injection, schedule: Q01DX005 (ip), vehicle: saline with Tween-80 105 % of control

Cc1c(O)c(=O)ccn1CCN
inactive: dose: 50.0 mg/kg/injection, schedule: Q01DX005 (ip), vehicle: saline 98 % of control and 102 % of control | dose: 100.0 mg/kg/injection, schedule: Q01DX005 (ip), vehicle: saline 100 % of control and 109 % of control | dose: 200.0 mg/kg/injection, schedule: Q01DX005 (ip), vehicle: saline 99 % of control and 104 % of control | dose: 400.0 mg/kg/injection, schedule: Q01DX005 (ip), vehicle: saline 91 % of control and 95 % of control

C=C1C(=O)OC2C1CC/C(C)=C/CCC1(C)OC21 (stereo not drawn)
inactive: dose: 8.75 mg/kg/injection, schedule: Q01DX009 (ip), vehicle: Klucel (hydroxypropylcellulose) (HPC) 106 % of control | dose: 17.5 mg/kg/injection, schedule: Q01DX009 (ip), vehicle: Klucel (hydroxypropylcellulose) (HPC) 106 % of control

CC1(C(N)=O)CCSc2ccccc2C1=O (stereo not drawn)
inactive: [8] 95 % of control | [9] 92 % of control | [10] 94 % of control

O=C(Nc1nccs1)Nc1ccc(Br)cc1C(F)(F)F
inactive: [14] 110 % of control | [15] 113 % of control | [16] 113 % of control

CC1=C(C(=O)OCc2ccccc2)C(c2cccnc2)C(C(=O)OCc2ccccc2)=C(C)N1
inactive: dose: 25.0 mg/kg/injection, schedule: Q01DX009 (ip), vehicle: distilled water + Tween-80 91 % of control | dose: 50.0 mg/kg/injection, schedule: Q01DX009 (ip), vehicle: distilled water + Tween-80 100 % of control | dose: 100.0 mg/kg/injection, schedule: Q01DX009 (ip), vehicle: distilled water + Tween-80 100 % of control | dose: 200.0 mg/kg/injection, schedule: Q01DX009 (ip), vehicle: distilled water + Tween-80 98 % of control | dose: 400.0 mg/kg/injection, schedule: Q01DX009 (ip), vehicle: distilled water + Tween-80 105 % of control

O=C(O)C(=O)O.[U]
inactive: dose: 12.5 mg/kg/injection, schedule: Q01DX009 (ip), vehicle: saline with Tween-80 100 % of control

CCCC1c2c(ccc3c2OCO3)CC[N+]1(C)CCN(CC)CC (stereo not drawn)
inactive: dose: 6.25 mg/kg/injection, schedule: Q01DX005 (ip), vehicle: saline with Tween-80 109 % of control | dose: 12.5 mg/kg/injection, schedule: Q01DX005 (ip), vehicle: saline with Tween-80 98 % of control | [7] 100 % of control and 105 % of control

O=C1CCCCCCCC(=O)Nc2ccc3nc4ccccc4c(c3c2)SCCCCCCCCCCCCSc2c3ccccc3nc3ccc(cc23)N1
inactive: [8] 105 % of control | [9] 107 % of control | [10] 104 % of control

NN=C(c1ccccn1)c1ccccn1
inactive: dose: 37.5 mg/kg/injection, schedule: Q01DX009 (ip), vehicle: saline with Tween-80 94 % of control | dose: 75.0 mg/kg/injection, schedule: Q01DX009 (ip), vehicle: saline with Tween-80 114 % of control | dose: 150.0 mg/kg/injection, schedule: Q01DX009 (ip), vehicle: saline with Tween-80 113 % of control
